The test system of data set [1] is Escherichia coli. Description: In vitro antibacterial activity, agar dilution MIC (Experiment 1). It counts as cell-based. The method, boiled down:
(§1)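 MIC is the minimum inhibitory concentration, determined by agar dilution per the NCCLS M7-A7 standard. Strains tested were E. coli ATCC25922, P. aeruginosa ATCC27853 and K. pneumoniae ATCC700603.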
(In agar dilution, organisms are placed on agar that contains the substance at set levels.)

In data set [2] the test system is Klebsiella pneumoniae. Described as above. Format: cell-based. The settings on record: agar dilution; for MIC50: read-out: MIC50; for MIC90: read-out: MIC90. The method, boiled down: as §1
Data set [3] has as its system Pseudomonas aeruginosa. Described as above. It counts as cell-based. The settings on record: agar dilution (Table 3); for MIC50: read-out: MIC50; for MIC90: read-out: MIC90. The method, boiled down:
as §1

In data set [4] the test system is polymyxin-resistant mcr-1 positive Enterobacteriaceae. The data set is described as follows: In vitro antibacterial effect on polymyxin-resistant mcr-1 positive Enterobacteriaceae, agar dilution MIC (Experiment 2). Format: cell-based, Escherichia coli. How it is done: Tested samples: the compounds of the present invention, prepared according to the methods of the preparation examples;
Polymyxin E sulphate, Ampicillin, Cefotaxime, Gentamicin, Ciprofloxacin, Tetracycline, and Bactrim were all commercial products, the following experiments were carried out according to the content of an effective ingredient in each commercial product.
Tested strains: Escherichia coli carrying mcr-1 gene isolated from animals and Escherichia coli ATCC25922, a quality control strain, were provided by South China Agricultural University.
With reference to the agar dilution method in CLSI, the MIC value of the tested drugs to the polymyxin resistant mcr-1 positive Escherichia coli were determined.
Preparation of drug-containing agar plates: a drug solution with the highest concentration was prepared for each compound; the drug solution with the highest concentration was subjected to the double dilution; for each of dilution gradient, 1 mL (20×drug working solution) of the drug solution was added to 19 mL MH agar at 45-50° C.; immediately after addition, the agar and the drug solution were uniformly mixed to give a drug-containing agar plate with final concentrations of […], and the plate was solidified for later use; and in the meanwhile, a growth control group was arranged.
Inoculum preparation and culture: the strains stored at −80° C. were rejuvenated and formulated with broth so that the turbidity reached or exceeded 0.5 #McFarland unit; a 96-well plate was used as the inoculation tank, and the bacterial solution was diluted with sodium chloride injection so that the content of bacteria inoculated on the agar was 10^4 CFU/point. A multi-point inoculation instrument was used to inoculate the bacterial solution to the surface of the labeled drug-containing agar. After the water in the inoculation point was completely absorbed by the agar, the plate was placed upside down in a 37° C. constant-temperature incubator and incubated for 16-20 hours.

Data set [5] deals with Pseudomonas aeruginosa. Description: In vitro antibacterial activity against Pseudomonas aeruginosa, agar dilution MIC (Experiment 3). Format: cell-based. Particulars: CLSI 2018 (Table 5). As to the method: Tested samples: the compound of the present invention, prepared according to the preparation example method; Compound C, prepared with reference to WO2008154642A2.
With reference to the steps of the agar dilution method in the 2018 USA Clinical and Laboratory Standards Institute (CLSI), the determination of the minimum inhibitory concentration (MIC) of the compounds against the strain(s) was carried out.
Preparation of drug-containing plate: (1) a drug solution with the highest concentration was prepared, and the highest concentration of each compound was 160 μg/mL. (2) For each compound, the drug solution with the highest concentration was subjected to the double dilution, and a total of 10 concentration gradients was obtained; for each of dilution gradient, 2 mL of the drug solution was added to 18 mL MH agar solution which had been autoclaved at 121° C. and cooled to about 50° C.; the mixture was uniformly mixed, left stand and cooled to give a drug-containing plate; and the plate was labeled. The final concentrations of the compound were respectively 16, 8, 4, 2, 1, 0.5, 0.25, 0.125, 0.06 and 0.03 μg/mL.
Inoculum preparation and inoculation: A fresh single colony was selected, diluted with 0.9% sodium chloride injection, adjusted to 0.5 #McFarland turbidity, and then diluted 10 times with 0.9% sodium chloride injection, then inoculated with an automatic multi-point inoculation instrument to the labeled drug-containing plate.

A short description of data set [6]: Pharmacokinetics (PK) determination in SD rats (Experiment 4). Format: in vivo. Particulars: plasma; for Cl_obs / Vz_obs / t1/2z / λ_z: IV 2 mg/kg; for AUC(0-t) / AUC(0-inf): Sprague-Dawley (SD), rat, iv; for AUC(0-inf): read-out: AUCINF_obs. The method, boiled down: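 SD rats; caudal-vein blood on heparin, plasma stored at −80 °C. Plasma protein-precipitated with internal standard, diluted with water and quantified by LC-MS/MS on C18 column; PK parameters by noncompartmental-software analysis.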

Usually MIC50 stands for an inhibitory concentration at the 50% level, which refers to growth in some studies and to a panel of isolates in others. As a reminder, the MIC90 is an inhibitory concentration at the 90% level, which refers to growth in some studies and to a panel of isolates in others. As usually defined, the AUC(0-t) is exposure summed from dosing to a finite time, without extrapolation to infinity. A lower AUC(0-t) goes with less exposure.

In brackets after ≈: the same amount, converted by molar mass. Like-named read-outs stand apart in the source and are kept apart here. A value given as a limit tells only on which side of the number the result lay.

On to `CC(O)[C@H](NC(=O)c1ccc(C#CC#Cc2ccc(CO)o2)cc1)C(=O)NO` (stereo in doubt) [Compound 6, N-((2S,3R)-3-hydroxy-1-(hydroxyamino)-1-oxobutan-2-yl)-4-((5-(hydroxymethyl)furan-2-yl)buta-1,3-diynyl)benzamide], for which, in data set [1], the MIC50 was found to be 0.125 µg/mL (≈ 0.327 µM) and the MIC90 amounted to 0.125 µg/mL (≈ 0.327 µM). For the same molecule, in data set [2], the MIC50 worked out at 1 µg/mL (≈ 2.62 µM) and the MIC90 was found to be 1 µg/mL (≈ 2.62 µM). In data set [3], the MIC50 worked out at 0.25 µg/mL (≈ 0.654 µM) and the MIC90 worked out at 1 µg/mL (≈ 2.62 µM). In addition, the MIC90 in data set [4] (Escherichia coli, read-out: MIC90 Value, polymyxin-resistant mcr-1 positive Escherichia coli, agar dilution) is 1 µg/mL (≈ 2.62 µM). For the same molecule, the “MIC90 Value” in data set [4] (polymyxin-resistant mcr-1 positive Escherichia coli, agar dilution) stood at 0.5 µg/mL (≈ 1.31 µM). The same molecule returned an MIC50 in data set [5] of 0.5 µg/mL (≈ 1.31 µM). In data set [5] (read-out: MIC90), the MIC90 came out at 1 µg/mL (≈ 2.62 µM). In data set [6] (2 mg/kg), this molecule came in with a Cl_obs of 8.33 ± 1 mL/min/kg, a Vz_obs of 0.46 ± 0.14 L/kg, a t1/2z of 37.2 ± 7.2 min and a λ_z of 1.14 ± 0.21 h⁻¹. For the same molecule, in data set [6] (2 mg/kg), the area under the curve AUC(0-t) worked out at 4000 ± 442 ng·h/mL and the AUC(0-inf) came out at 4010 ± 443 ng·h/mL.
For the molecule `C[C@@H](O)[C@H](NC(=O)c1ccc(C#CC#Cc2ccc(CO)s2)cc1)C(=O)NO` [Compound 41, N-((2S,3R)-3-hydroxy-1-(hydroxyamino)-1-oxobutan-2-yl)-4-((5-(hydroxymethyl)thienyl-2-yl)buta-1,3-diynyl)benzamide], in data set [1] (agar dilution, read-out: MIC50), the MIC50 is ≤ 0.03 µg/mL. Moreover, the MIC90 in data set [1] (agar dilution, read-out: MIC90) turned out to be 0.06 µg/mL (≈ 0.151 µM). Moreover, in data set [2], the MIC50 amounted to 0.125 µg/mL (≈ 0.314 µM) and the MIC90 stood at 0.25 µg/mL (≈ 0.627 µM). Also, in data set [3], the MIC50 came out at 0.25 µg/mL (≈ 0.627 µM) and the MIC90 amounted to 1 µg/mL (≈ 2.51 µM). In addition, in data set [6], the Cl_obs is 22 ± 5.5 mL/min/kg, the Vz_obs came out at 0.61 ± 0.20 L/kg, the t1/2z was found to be 19.2 ± 2.4 min and the λ_z stood at 2.21 ± 0.29 h⁻¹. Also, in data set [6] (2 mg/kg), the AUC(0-t) is 1590 ± 447 ng·h/mL and the AUC(0-inf) is 1590 ± 446 ng·h/mL.
On to `C[C@@H](O)[C@H](NC(=O)c1ccc(C#CC#Cc2ccc(CO)cc2)cc1)C(=O)NO` [Compound C], for which, in data set [5], the MIC50 stood at 4 µg/mL (≈ 10.2 µM) and the MIC90 was >16 µg/mL. Besides, in data set [5] (read-out: MIC90), the MIC90 is > 16 µg/mL.

The values above are taken from US11498909B2, “Compound acting as antibiotics” (KBP BIOSCIENCES CO., LTD., priority 2018, dated 2022).
